What was measured:
[1] = tested on: HCT116 cells; assay: In vitro assay of inhibition of proliferation in whole cells (MTS); format: cell-based; conditions: Homo sapiens, HCT-116, 72 hours, read-out: IC50 (nM) Test (b) (In vitro assay for the inhibition of whole cell proliferation)
Description: Inhibition of proliferation in whole cells was assayed using the Promega cell titer 96 aqueous proliferation assay (Promega #G5421). HCT116 cells were seeded in 96 well plates at 1×10^3 cells/well, and allowed to adhere overnight. They were treated with inhibitors for 72 hours. 20 μl of the tetrazolium dye MTS was added to each well and the plates were re-incubated for 3 hours. Absorbance was then measured on a 96 well plate reader at […]. The IC50 values for HDAC inhibitors were determined by performing dose response curves with individual compounds and determining the concentration of inhibitor producing fifty percent decrease in the maximal signal (diluent control).

[2] = molecular target: T1, recombinant human HDAC1 (Homo sapiens, UniProt Q13547); assay: In vitro enzyme assay of recombinant HDAC1; format: biochemical; conditions: recombinant human HDAC1, acetylated histone H4 peptide; read-out: IC50 (nM) Test (a) (In vitro assay for the inhibition of HDAC1)
T1 construct: FLAG (C); made in house; host or cells: Hi5 insect cells
T1 sequence (Q13547 whole entry): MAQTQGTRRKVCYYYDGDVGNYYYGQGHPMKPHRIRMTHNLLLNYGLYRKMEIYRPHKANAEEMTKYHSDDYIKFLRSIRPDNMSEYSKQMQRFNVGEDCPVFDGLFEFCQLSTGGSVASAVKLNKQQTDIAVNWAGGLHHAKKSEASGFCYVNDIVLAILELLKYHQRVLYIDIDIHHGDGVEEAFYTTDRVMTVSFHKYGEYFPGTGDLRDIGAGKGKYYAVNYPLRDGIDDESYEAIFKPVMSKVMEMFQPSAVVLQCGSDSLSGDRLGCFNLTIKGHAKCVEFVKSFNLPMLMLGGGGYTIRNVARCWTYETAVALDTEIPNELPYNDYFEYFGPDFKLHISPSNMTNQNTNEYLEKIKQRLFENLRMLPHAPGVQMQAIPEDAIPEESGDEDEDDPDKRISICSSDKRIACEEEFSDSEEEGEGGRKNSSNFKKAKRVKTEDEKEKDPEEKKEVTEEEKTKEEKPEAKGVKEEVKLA
Description: HDAC inhibitors were screened against recombinant human HDAC1 produced in Hi5 insect cells. The enzyme was cloned with a FLAG tag at the C-terminal of the gene and affinity purified using Anti-FLAG M2 agarose from SIGMA (A2220).
The deacetylase assays were carried out in a 50 μl reaction. HDAC1 (75 ng of enzyme) diluted in 15 μl of reaction buffer (25 mM TrisHCl (pH 8), 137 mM NaCl, 2.7 mM KCl, 1 mM MgCl2) was mixed with either buffer alone (10 μl) or buffer containing compound (10 μl) for 30 minutes at ambient temperature. 25 μM acetylated histone H4 peptide (KI 174 Biomol) diluted in 25 μl of buffer was then added to the reaction and incubated for one hour at ambient temperature. The reaction was stopped by addition of an equal volume (50 μl) of Fluor de Lys developer (Biomol) containing Trichostatin A at 2 μM. The reaction was allowed to develop for 30 minutes at ambient temperature and then fluorescence measured at an excitation wavelength of 360 nm and an emission wavelength of 465 nm. IC50 values for HDAC enzyme inhibitors were determined by performing dose response curves with individual compounds and determining the concentration of inhibitor producing fifty percent decrease in the maximal signal (diluent control).

- IC50 [1]: 183 nM
- IC50 [2]: 29 nM
Compound: CC(C)NCc1cnc(-c2ccc(C(=O)Nc3ccccc3N)cc2)s1 [Example 1, N-(2-aminophenyl)-4-{5-[(isopropylamino)methyl]-1,3-thiazol-2-yl}benzamide]
